Reference: patent US20110015162A1, “15,16-Methylene-17-hydroxy-19-nor-21-carboxylic acid-steroid Y-lactone derivative, use thereof and medicinal products containing the derivative” (Bayer Schering Pharma Aktiengesellschaft, priority 2007, published 2011)
pEC50, pIC50: −log10 of the molar value. Read-outs that look alike come from different tables or passages of the source.

Columns and labels:
androgen receptor [1] = biological target: T1, androgen receptor (Homo sapiens, UniProt P10275); assay: Androgen receptor binding test; parameters: expressed in transfected cells; conditions: reference substance 3H-testosterone
T1 sequence (P10275 1-920): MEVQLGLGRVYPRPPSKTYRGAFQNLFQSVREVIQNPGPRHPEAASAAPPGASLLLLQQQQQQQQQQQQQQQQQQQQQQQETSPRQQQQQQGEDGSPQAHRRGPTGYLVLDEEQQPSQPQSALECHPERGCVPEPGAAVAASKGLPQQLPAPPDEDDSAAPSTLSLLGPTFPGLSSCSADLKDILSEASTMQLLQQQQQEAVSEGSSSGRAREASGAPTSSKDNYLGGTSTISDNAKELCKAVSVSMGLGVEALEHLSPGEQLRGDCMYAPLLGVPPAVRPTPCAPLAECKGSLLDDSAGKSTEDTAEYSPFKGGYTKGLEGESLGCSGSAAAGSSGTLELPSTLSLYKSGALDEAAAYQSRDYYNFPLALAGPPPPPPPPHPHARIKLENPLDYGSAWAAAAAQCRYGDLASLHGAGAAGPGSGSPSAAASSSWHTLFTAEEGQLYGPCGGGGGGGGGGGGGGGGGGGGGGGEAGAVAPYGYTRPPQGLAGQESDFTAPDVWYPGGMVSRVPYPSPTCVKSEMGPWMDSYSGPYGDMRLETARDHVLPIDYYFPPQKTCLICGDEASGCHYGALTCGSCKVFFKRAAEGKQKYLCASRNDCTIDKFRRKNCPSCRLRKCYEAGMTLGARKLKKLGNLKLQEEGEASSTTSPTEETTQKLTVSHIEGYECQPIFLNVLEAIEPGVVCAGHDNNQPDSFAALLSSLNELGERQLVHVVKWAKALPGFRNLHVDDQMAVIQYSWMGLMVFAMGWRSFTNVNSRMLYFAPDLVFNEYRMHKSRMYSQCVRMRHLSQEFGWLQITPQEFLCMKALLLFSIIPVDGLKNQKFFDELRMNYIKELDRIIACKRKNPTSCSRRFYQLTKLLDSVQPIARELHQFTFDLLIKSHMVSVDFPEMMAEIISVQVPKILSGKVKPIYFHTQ

[2] = biological target: T2, mineralocorticoid receptor (Homo sapiens, UniProt P08235); assay: Mineralocorticoid receptor binding test; parameters: made in house; host or cells: Hi5 insect cells (cytosol); conditions: reference substance 3H-aldosterone, cytosol from MR-expressing insect cells (Hi5)
T2 sequence (P08235 1-984): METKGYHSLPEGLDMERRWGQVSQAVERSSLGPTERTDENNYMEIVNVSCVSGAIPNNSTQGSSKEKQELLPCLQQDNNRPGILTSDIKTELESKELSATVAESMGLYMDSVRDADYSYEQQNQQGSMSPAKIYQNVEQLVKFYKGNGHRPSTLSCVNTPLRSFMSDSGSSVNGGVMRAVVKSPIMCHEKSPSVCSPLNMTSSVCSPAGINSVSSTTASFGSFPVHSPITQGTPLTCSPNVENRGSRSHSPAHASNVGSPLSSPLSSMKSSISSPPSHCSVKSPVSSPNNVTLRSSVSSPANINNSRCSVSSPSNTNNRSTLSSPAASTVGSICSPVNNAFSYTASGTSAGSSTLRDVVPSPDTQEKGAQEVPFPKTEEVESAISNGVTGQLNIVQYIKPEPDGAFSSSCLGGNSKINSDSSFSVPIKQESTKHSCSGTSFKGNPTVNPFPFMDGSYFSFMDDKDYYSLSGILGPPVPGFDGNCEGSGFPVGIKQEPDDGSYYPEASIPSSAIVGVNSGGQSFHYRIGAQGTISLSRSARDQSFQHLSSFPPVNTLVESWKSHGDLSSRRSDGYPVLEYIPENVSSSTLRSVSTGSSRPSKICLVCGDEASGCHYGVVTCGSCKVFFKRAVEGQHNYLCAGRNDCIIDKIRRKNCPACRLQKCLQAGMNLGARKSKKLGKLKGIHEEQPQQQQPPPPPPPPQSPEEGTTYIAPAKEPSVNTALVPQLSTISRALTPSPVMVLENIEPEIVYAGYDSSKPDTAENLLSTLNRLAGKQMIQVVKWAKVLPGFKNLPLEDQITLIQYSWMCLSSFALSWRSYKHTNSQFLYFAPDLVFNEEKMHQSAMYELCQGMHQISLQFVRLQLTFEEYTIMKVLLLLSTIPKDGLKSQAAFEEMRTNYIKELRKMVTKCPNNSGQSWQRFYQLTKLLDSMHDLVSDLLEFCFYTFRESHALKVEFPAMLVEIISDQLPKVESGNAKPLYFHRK
Description: Using cytosol from progesterone receptor-expressing insect cells (Hi5), competitive binding to the progesterone receptor was determined from the ability to displace ^3H-progesterone as reference substance from the receptor.
2. Mineralocorticoid Receptor Binding Test:
The test was carried out as in 1, with the following modifications: cytosol from mineralocorticoid receptor-expressing insect cells (Hi5) was used, and the reference substance was ^3H-aldosterone.

androgen receptor [3] = biological target: T1, androgen receptor; assay: Androgenic/antiandrogenic action by transactivation test (PC3 reporter cells); assay type: cell-based; parameters: expressed in transfected cells; host or cells: PC3 cells
Description: The test compounds were added eight hours later, and the cells were incubated with the compounds for 16 hours. The tests were carried out in triplicate. At the end of incubation the medium containing the effector was removed and replaced with lysis buffer. After luciferase assay substrate (Promega, #E1501) had been added, the 96-well plates were then put in a microplate luminometer (Pherastar, BMG Labtech), and the luminescence was measured. The IC50 values were evaluated using software for calculating dose-effect relations.
6. Determination of Androgenic/Antiandrogenic Action by Means of Transactivation Tests:
The androgenic/antiandrogenic action of the test substances was determined as for the transactivation tests described above.
The following modifications were made: In this case reporter cell lines were used (PC3 cells) that express the androgen receptor, and a reporter construct that contains luciferase under the control of a steroid hormone-responsive promoter.
For determination of the antiandrogenic efficacy, 0.05 nM R1881 was added to the cells, in order to achieve almost maximum stimulation of the reporter gene.

[4] = PC-3, read-out: Androgen receptor Agonism efficacy
[5] = PC-3, read-out: Androgen receptor Antagonism efficacy

For `C[C@]12CC[C@H]3[C@@H](CCC4=CC(=O)CC[C@@H]43)[C@@H]1[C@H]1C[C@H]1[C@@]21C=CC(=O)O1` [Example 12, 17β-Hydroxy-15α,16α-methylene-19-nor-17α-pregna-4,20(Z)-dien-3-one-21-carboxylic acid γ-lactone], the “Androgen receptor Competition factor” value (androgen receptor [1]) was 16.5, the “Mineralocorticoid receptor (MR) Competition factor” value (shortened to “Mineralocorticoid receptor”) [2] was 2.9 and the pEC50 (androgen receptor [3]) was 6.89. The pIC50 (androgen receptor [3]) was 7.07, the Emax (androgen receptor [3]; [4]) was 14.9% and the Emax (androgen receptor [3]; [5]) was 61.7%.
`C[C@@H]1CC2=CC(=O)CC[C@@H]2[C@H]2CC[C@@]3(C)[C@@H]([C@@H]4C[C@@H]4[C@@]34C=CC(=O)O4)[C@@H]21` [Example 23A, 17β-Hydroxy-7α-methyl-15β,16β-methylene-19-nor-17α-pregna-4,20(2)-dien-3-one-21-carboxylic acid γ-lactone] was tested, and the “Androgen receptor Competition factor” value (androgen receptor [1]) was 4.2, the “Mineralocorticoid receptor” value [2] was 1.9 and the pEC50 (androgen receptor [3]) was 7.72. For the same compound, the Emax (androgen receptor [3]; [4]) was 63.6% and the Emax (androgen receptor [3]; [5]) was 5%.
`CC[C@]12CC[C@H]3[C@@H]([C@H]4C[C@H]4C4=C(Cl)C(=O)CC[C@@H]43)[C@@H]1[C@@H]1C[C@@H]1[C@@]21C=CC(=O)O1` [Example 8, 6β,7β;15β,16β-Bismethylene-4-chloro-17β-hydroxy-18-methyl-19-nor-17α-pregna-4,20(Z)-dien-3-one-21-carboxylic acid γ-lactone] was tested, and the “Androgen receptor Competition factor” value (androgen receptor [1]) was 240.0, the “Mineralocorticoid receptor” value [2] was 29.0 and the pEC50 (androgen receptor [3]) was 6.60. The pIC50 (androgen receptor [3]) was 6.89, the Emax (androgen receptor [3]; [4]) was 32.9% and the Emax (androgen receptor [3]; [5]) was 22.9%.
With `CC[C@@H]1CC2=CC(=O)CC[C@@H]2[C@H]2CC[C@@]3(CC)[C@@H]([C@@H]4C[C@@H]4[C@@]34C=CC(=O)O4)[C@H]12` [Example 5A, 17β-Hydroxy-7α-ethyl-18-methyl-15β,16β-methylene-19-nor-17α-pregna-4,20(Z)-dien-3-one-21-carboxylic acid γ-lactone] the “Androgen receptor Competition factor” value (androgen receptor [1]) was 4.1, the “Mineralocorticoid receptor” value [2] was 1.0 and the pEC50 (androgen receptor [3]) was 8.08. The Emax (androgen receptor [3]; [4]) was 73% and the Emax (androgen receptor [3]; [5]) was 5%.
In the case of `CC[C@]12CC[C@H]3[C@H]([C@@H]1[C@@H]1C[C@@H]1[C@@]21C=CC(=O)O1)[C@H](C1CC1)CC1=CC(=O)CC[C@@H]13` [Example 7A, 17β-Hydroxy-7α-cyclopropyl-18-methyl-15β,16β-methylene-19-nor-17α-pregna-4,20(Z)-dien-3-one-21-carboxylic acid γ-lactone], the “Androgen receptor Competition factor” value (androgen receptor [1]) was 5.2, the “Mineralocorticoid receptor” value [2] was 4.7 and the pEC50 (androgen receptor [3]) was 7.48. It also gave an Emax (androgen receptor [3]; [4]) of 62.6% and an Emax (androgen receptor [3]; [5]) of 5%.
With `CC[C@]12CC[C@H]3[C@H]([C@@H]1[C@@H]1C[C@@H]1[C@@]21C=CC(=O)O1)[C@H](C)CC1=CC(=O)CC[C@@H]13` [Example 4A, 7α,18-Bismethyl-17β-hydroxy-15β,16β-methylene-19-nor-17α-pregna-4,20(Z)-dien-3-one-21-carboxylic acid γ-lactone] the “Androgen receptor Competition factor” value (androgen receptor [1]) was 2.6, the “Mineralocorticoid receptor” value [2] was 0.6 and the pEC50 (androgen receptor [3]) was 8.52. The Emax (androgen receptor [3]; [4]) was 97.5% and the Emax (androgen receptor [3]; [5]) was 5%.
With `CC[C@@H]1CC2=CC(=O)CC[C@@H]2[C@H]2CC[C@@]3(C)[C@@H]([C@@H]4C[C@@H]4[C@@]34C=CC(=O)O4)[C@H]12` [Example 24A, 7α-Ethyl-17β-hydroxy-15β,16β-methylene-19-nor-17α-pregna-4,20(Z)-dien-3-one-21-carboxylic acid γ-lactone] the “Androgen receptor Competition factor” value (androgen receptor [1]) was 8.1, the “Mineralocorticoid receptor” value [2] was 1.9 and the pEC50 (androgen receptor [3]) was 7.28. For the same compound, the pIC50 (androgen receptor [3]) was 7.96, the Emax (androgen receptor [3]; [4]) was 36.8% and the Emax (androgen receptor [3]; [5]) was 22.5%.
